Measured values taken from a melting point compilation (Tetko et al.; mined from patent text by program, amines drawn as free bases though some values may be those of a salt).

| melting point [°C] | Structure (SMILES) |
| --- | --- |
| 154 to 155 | CS(=O)(=O)c1ccc(-c2nnsc2-c2ccccc2)cc1 |
| 188 to 189 | O=C(c1ccccc1)N1C=CC(c2c(-c3ccc(F)cc3)nc3n2CCS3)C=C1 |
| 128 to 130 | CCCNC(=O)C(O)C1c2ccccc2C(=O)N1c1ccc2ccc(C)nc2n1 (stereo not drawn) |
| 185 to 187 | COc1ccc(Oc2c(OC)cc(N)c3nccc(C)c23)cc1 |
| 61 to 62 | O=C1CCSc2sccc21 |
| 218 to 220 | CCOC(=O)c1ncn2c1c(=O)n(C)c1ccccc12 |
| 200 | COc1ccc2c(c1)C=C(c1ccc3c(c1)NC(=O)CO3)C(c1ccccc1)O2 (stereo not drawn) |
| 168 to 169 | NC(=O)c1ncn(C2OC(CO)C(O)C2O)c1C#Cc1ccccc1 (stereo not drawn) |
| 64 | CCOC(=O)CC(=O)c1ccc(C#N)cc1 |
| 258 to 259 | CCCOc1ccc(N(C)C)cc1-c1ncc(-c2nnn[nH]2)c(=O)[nH]1 |
| 178 to 179 | Nc1c2c(nc3ccccc13)CCC=C2 |
| 155 to 156 | CCOC(=O)c1ccc(-c2nc(COc3ccc(C=O)cc3OC)c(C)o2)s1 |
| 119 to 121 | CCN(CC)CCNC(=O)c1cc(Cl)c(N)cc1OCCCN |
| 257 | Cc1cc(-c2ccc(C(F)(F)F)cc2)cn2c(-c3nc(-c4ccc(N)nc4)no3)cnc12 |
| 78 to 81 | CCCC(=O)NC1CCc2ccccc2C1 (stereo not drawn) |
| 119 to 121 | C[N+]([O-])=C(Cn1cncn1)c1ccc(Cl)cc1 |
| 217 to 219 | O=C(O)c1ccc(NC(=O)c2ccccc2-c2ccccc2)cc1Cl |
| 266 to 268 | O=C(Nc1ccc(Cl)cc1)Nn1cnc2c(O)cccc2c1=O |
| 218 to 220 | Cc1cc2cc(Nc3ncnc4cc(-c5ccccc5)sc34)ccc2[nH]1 |
| 100 | O=CC1CC(n2ccc(=O)[nH]c2=O)OC1COC(c1ccccc1)(c1ccccc1)c1ccccc1 (stereo not drawn) |
| 124 to 127 | COc1ccc(C(C)=O)c2cccc(S(=O)(=O)N(C)C)c12 |
| 192 to 195 | ClCCCn1c2ccccc2c2cc(-c3nc(-c4ccccc4)no3)ncc21 |
| 144 to 146 | CN(C(=O)Nc1ccccc1CCc1cc(C(C)(C)C)c(O)c(C(C)(C)C)c1)C1CCN(Cc2ccccc2)CC1 |
| > 300 | CC(C)(C)OC(=O)NCc1[nH]c(C(=O)O)cc(=O)c1O |
| 102 | CC(=O)Oc1cc2c(cc1OC(C)=O)OCC(c1ccccc1)C2 (stereo not drawn) |

| melting point [°C] | Structure (SMILES) |
| --- | --- |
| 228 to 230 | CCn1c(=O)c2c(nc(/C=C/c3cccc(OC(C)=O)c3OC(C)=O)n2C)n(CC)c1=O |
| 190 to 192 | CCOC(=O)c1cnn2c(O)cc(-c3ccc(Cl)cc3)nc12 |
| 220 to 222 | O=C1CC(c2cccc(-c3noc(CCCO)n3)c2)=Nc2ccc(-c3ccc(F)cc3)cc2N1 |
| 231 to 235 | O=C(O)Cc1cc(=O)c(O)cn1Cc1ccccc1 |
| 290 to 300 | N#Cc1c[nH]c2ccccc2c1=O |
| 253 to 255 | CC(=O)C(Cl)=NNc1ccccc1S(C)(=O)=O |
| 92 to 95 | O=C(O)c1ccc(SC(Cn2ccnc2)c2ccc(C(F)(F)F)cc2)cc1 (stereo not drawn) |
| 239 to 243 | CCCCc1c2c(nn1-c1ccccc1)c(Cl)nc1ccccc12 |
| 139 to 141 | Nc1ccc(-c2ncnn2-c2ccccc2F)cc1 |
| 106 to 107 | O=C1Oc2ccccc2CN1C1CCN(Cc2ccccc2)CC1 |
| 100 to 102 | O=C(N[C@@H](Cc1c[nH]c2ccccc12)C(=O)O)c1ccc(Cl)cc1 |
| 240 | O=c1nc(-c2ccccn2)sc2ccc(F)cc12 |
| 126 to 130 | C[C@@H](Nc1nnc(-c2ccccc2)c2occc12)C1CCCCC1 |
| > 75 | COc1c([N+](=O)[O-])cc(C(C)(C)C)cc1[N+](=O)[O-] |
| 136 to 139 | CCOC(=O)C(C)c1ccc(NC2OC(=O)c3ccccc32)cc1 (stereo not drawn) |
| 160 to 163 | COc1ccccc1N1CCN(CC(C(=O)NC(C)(C)C)c2ccccc2)CC1 (stereo not drawn) |
| 107 to 112 | CN(C)c1ccc(NC(=O)N(C[C@@H]2CCCC[C@H]2CN(C(=O)Nc2ccc(N(C)C)cc2)C2CCCCCC2)C2CCCCCC2)cc1 (relative stereo) |
| 67 to 68 | O=C(O)CCCCCCCOc1ccccc1 |
| 130 | CC(C)(C)OC(=O)COc1cc(NC(=O)OC(C)(C)C)c([N+](=O)[O-])cc1C#Cc1ccccc1 |
| 212 to 214 | CC(C)(C)c1cc(N2CCCCC2=O)cc(C(C)(C)C)c1O |
| 218 to 219 | COc1ccc(-c2c(Cl)c(CN3C(=O)COC3=O)nc3sc4c(c23)CCC(C(=O)O)C4)cc1 (stereo not drawn) |
| 135 to 136 | Clc1ncnc(Cl)c1I |
| 154 to 156 | CCOC(=O)[C@@H](O)[C@@H]1OC(=O)c2c(OC)cc(OC)cc21 |
| 122 to 125 | COC(=O)c1nc(-c2ccc(Cl)c(OC)c2F)cc(N)c1C |
| 111 to 112 | CCCCC1(CC)COP(=O)(Cc2ccc([N+](=O)[O-])cc2)OC1 (stereo not drawn) |

| melting point [°C] | Structure (SMILES) |
| --- | --- |
| 188 to 190 | CC(=O)N[C@@H](CSC(=O)c1ccccc1)C(=O)NCCSC(=O)c1ccccc1 |
| 260 to 270 | Cn1cc(C2=C(c3c4n(c5ccccc35)CCC4)C(=O)NC2=O)c2ccccc21 |
| 129 to 130 | O=C(O)CS(=O)CCCCCn1nc(-c2ccccc2)c(-c2ccccc2)c1-c1ccccc1 (stereo not drawn) |
| 95 to 105 | c1ccc2c(c1)-c1cccc3c(NCCCCNc4nccc5ccccc45)nnc-2c13 |
| 117 to 119 | COC(=O)N[C@@H]1Cc2ccccc2N(OC)C1=O |
| 86 to 88.5 | Cc1cc(C)c2c(c1)OC(C)(COc1ccc([N+](=O)[O-])cc1)CC2=O (stereo not drawn) |
| 193 to 200 | N#Cc1coc2ccc(Br)cc2c1=O |
| 82.5 | O=Cc1ccc(OCCCc2ccccc2)c([N+](=O)[O-])c1 |
| 140 | Cc1c(O)c(C(C)(C)C)c(Cc2cc(C(C)(C)C)c(O)c(C(C)(C)C)c2)c(C)c1Cc1cc(C(C)(C)C)c(O)c(C(C)(C)C)c1 |
| 111 | CC(=O)[C@H]1[C@H](C(=O)O)C1(C)C (relative stereo) |
| 139 to 140 | CC(=O)C(=Cc1ccc(S(C)(=O)=O)cc1)C(C)=O |
| 45.5 to 46.5 | Nc1c(Cl)cc(C(O)CNCCCCCCOCCOCCc2ccccn2)cc1Cl (stereo not drawn) |
| 169 to 170 | Nc1ncnc2c1c(I)cn2COCCO |
| 99 to 100 | COCCNC(=O)c1cccc(-c2ccc3c(c2)N(c2cccc(Cl)c2Cl)CC3)c1 |
| 35 to 36 | COC(=O)C(=NOCc1ccccc1)C(C)=O |
| 136 to 141 | CC(C)NCC(O)COc1cccc2c1CCC(O)C2 (stereo not drawn) |
| 178 to 179 | COc1ccc(CSc2nnc(-c3ccn4ncnc4c3)o2)cc1C(F)(F)F |
| 65.5 to 69 | Cc1csc(=Nc2ccccc2C)s1 |
| 85 to 90 | O=C(Cc1cc(F)cc(F)c1)N[C@@H](Cc1cc2ccccc2[nH]1)C(=O)N[C@@H]1C(=O)Nc2ccccc2S[C@@H]1c1ccccc1 |
| 250 to 252 | Oc1ccnc(Nc2cccc(Cl)c2)n1 |
| 58 to 59 | c1cc2c3c(c1)NCC3CCC2 (stereo not drawn) |
| 131 to 132 | Cn1c(=O)c2c(ncn2CCOC(=O)C(C)(C)Oc2ccc(Cl)cc2)n(C)c1=O |
| 131 | CC(C)C(=O)N[C@H]1C[C@@H](c2cc(NC(=O)Cc3cccc4ccccc34)n[nH]2)C1 |
| 137 to 139 | CC(=O)SCCC(=O)N1N=C(c2ccccc2)CC1C(=O)O (stereo not drawn) |
| 248 to 250 | c1ccc2c(c1)CCc1c-2noc1N1CCN(Cc2c[nH]c3ncccc23)CC1 |

| melting point [°C] | Structure (SMILES) |
| --- | --- |
| 288 to 290 | Nc1cc(Oc2ccc3c(C(=O)O)cccc3c2)ncn1 |
| 151 to 153 | COc1ccc2c(c1)sc1nc(C(O)C3CC3)cn12 (stereo not drawn) |
| 88 to 90 | CCOc1ccc([N+](=O)[O-])cc1OC |
| 121 to 124 | Cn1ncnc1COCc1cccc(-n2cnc3cc(C(F)(F)F)ccc32)c1 |
| 192 to 200 | Nc1ccc(C(=O)N2CCC=Cc3sccc32)c(Cl)c1 |
| 106 to 107 | N#CNc1ccccc1-c1ccc(Cl)cc1 |
| 136 to 138 | CC1CC=C(c2nnn[nH]2)CN1CC(=O)O (stereo not drawn) |
| 209 to 210 | CCCc1nc2c(N)nc3cccnc3c2n1CC1(O)CCOCC1 |
| 115 to 116 | CSc1nc(NS(=O)(=O)c2ccc(C(C)(C)C)cc2)c(-c2ccc(C)cc2)c(OCCOCc2ccccc2)n1 |
| 99 to 109 | CN(CCC12CC3CC(CC(C3)C1)C2)C(=O)NCCCc1ccncc1 |
| 71.5 to 74.2 | CN(C)c1cnc(N)cn1 |
| 278 to 280 | Cc1cc(-c2ccc(Cl)cc2)nn2c(=O)[nH]nc12 |
| 59 to 61 | CCCCCCOc1ccc(CCCCCCCCC(=O)N(C)O)cc1 |
| 186 | NC(=S)NCCN1CCC(Nc2nc3ccccc3n2Cc2ccc(F)cc2)CC1 |
| 288 to 290 | N#Cc1cnc2c(sc3c([N+](=O)[O-])cccc32)c1Nc1cccc(Br)c1 |
| 41 to 44 | CCCCCCCCCCCCCCCCCC(=O)OC1CC(C)(C)N(OC(C)=O)C(CC)(CC)C1 (stereo not drawn) |
| 61 | O=C1CCC(c2ccc(F)c(F)c2)CC1 |
| 111 to 113 | CCCc1nc2c(N)nc3cc(OCCOCCNC(=O)OC(C)(C)C)ccc3c2s1 |
| 81 to 84 | Fc1ccc(C(Cl)(Cn2cncn2)C2(n3cncn3)CC2)cc1 (stereo not drawn) |
| 175 to 177 | Cc1cccnc1Cn1nnc2ccccc21 |
| 123 to 126 | N#Cc1c(NC(=O)CO)cccc1N1CCOCC1 |
| 201 to 203 | O=c1nc(N2CCN(c3cccc(C(F)(F)F)c3)CC2)sc2c([N+](=O)[O-])cc(C(F)(F)F)cc12 |
| 238 to 239 | CCCc1nc2c(N)nc3cccnc3c2n1Cc1cc(-c2ccc(F)cc2)no1 |
| 115 to 122 | COc1ccc(Cc2cc(O)ccc2OC)nc1 |

| Structure (SMILES) | melting point [°C] |
| --- | --- |
| Nc1c2c(nc3cc(C(F)(F)F)ccc13)CCSC2 | 253 to 259 |
| CN1CCN(c2nc3cccc4c3n2CCC4)CC1 | 112 to 113 |
| CN1CC(C)(C)Oc2c(C(=O)NC3CN4CCC3CC4)cccc21 (stereo not drawn) | 114 to 116 |
| COc1cc2c(cc1OC)C1CC(=O)C3CCCCC3N1CC2 (stereo not drawn) | 129 to 141 |
